Here are results for 2 compounds from patent US6444648B1, “Leishmaniasis remedy containing glucopyranose derivative as the active ingredient” (University of the Ryukyu, priority 1997, dated 2002).

The test system of the experiment is L. amazonesis. Description: Effects upon leishmaniasis-infected mice (shrinkage of skin foci). It is filed as in vivo, BALB/c mice. Particulars: 30 mg/kg twice a week for 8 weeks; for Average focus shrinkage degree: before administration = 100. The text has this: L. amazonesis was inoculated to tail root portions of BALB/c mice to prepare L. amazonesis-infected mice, and the mice were used 6 week after the infection. These mice were divided into four groups as mentioned below, infected foci (tail root portions) were photographed with lapse of time, and the effects upon them were examined in terms of [by means of] shrinkage degrees of the skin foci. The shrinkage degree of the skin focus was found by measuring a major axis of ulcer or node. The magnitude before administration was taken as 100 and the magnitude 8 weeks after administration was calculated according to the following calculation formula. Group A (Control group) Only a solvent (55% ethanol-4.5% glucose liquid) was injected topically into a focus twice a week for 8 weeks. Group B (Control group) Only a solvent (55% ethanol-4.5% glucose liquid) was injected intraperitoneally twice a week for 8 weeks. Group C (Topically injected group) A solution in which the sodium salt of the compound in the present invention represented by the formula (1) was dissolved in the solvent was injected topically into a focus twice a week for 8weeks at a rate of 30 mg/kg. Group D (intraperitoneally injected group) A solution in which the sodium salt of the compound in the present invention represented by the formula (1) was dissolved in the solvent was injected intraperitoneally twice a week for 8 weeks at a rate of 30 mg/kg. [formula]

“2-deoxy-2-[(3S)-(9-phenylnonanoyloxy)tetradecanoyl]amino-3-O-(9-phenylnonanoyl)-4-O-sulfo-α-D-glucopyranose”: the “Average focus shrinkage degree” value (Group C: injected topically into focus, magnitude (major axis of ulcer or node) 8 weeks after administration, n = 7, solvent control Group A 220.5) is 138.9 (n = 7) and the “Average focus shrinkage degree” value (Group D: injected intraperitoneally, magnitude 8 weeks after administration, n = 6, solvent control Group B 289.3) is recorded as 178.5 (n = 6). Also, the “Skin focus completely cured (number of mice)” value (Group C: topical injection, n = 7) is reported as “completely cured with respect to three mice”.
For the compound `CCCCCCCCCCC[C@@H](CC(=O)N[C@@H]1[C@@H](OC(=O)CCCCCCCCc2ccccc2)[C@H](OS(=O)(=O)[O-])[C@@H](CO)O[C@@H]1O)OC(=O)CCCCCCCCc1ccccc1.[Na+]` [the compound in the present invention, 2-deoxy-2-[(3S)-(9-phenylnonanoyloxy)tetradecanoyl]-amino-3-O-(9-phenylnonanoyl)-4-O-sulfo-α-D-glucopyranose], the “Effect on focal infection of leishmaniasis-infected mice (in words)” value (conclusion from Table 1, topical or intraperitoneal) was “effectively shrunk the focal infection”.
